Structures are written as SMILES.

The values below come from patent publication US12239654B2, “Compounds and methods for treating neurological and cardiovascular conditions” (Astrocyte Pharmaceuticals, Inc., priority 2016, dated 2025).

A short description of series [1]: In vitro stability of MRS2365 in mouse plasma. Format: in vitro ADME. The protocol: (§1) Whole blood was obtained from male CD-1 mice and human volunteers at Seventh Wave Laboratories (Maryland Heights, MO). Plasma and blood samples were prepared using either EDTA (1 mM) or lithium heparin as anticoagulants.
(§2) Plasma Stability Determination: MRS2365, enalapril and procaine were solubilized in phosphate-buffered saline, pH 7.4. […] Stability incubations were initiated with the addition of MRS2365 (1 μM final concentration). Initial assessments of stability in EDTA-generated plasma utilized incubation timepoints of 0, 10, 30, 60, 120 and 240 minutes (FIGS. 3 and 4). Subsequent studies comparing EDTA- and heparin-generated plasma utilized incubation timepoints of 0, 1, 2.5, 5, 7.5, 10 and 30 minutes (FIG. 7). Additional plasma stability incubations comparing EDTA- and heparin-generated plasma were performed using timepoints of 0, 5, 10, 20, 30, 45, 60 and 90 seconds (FIG. 8). For metabolite scouting analyses, MRS2365 was incubated in heparinized human plasma at a concentration of 100 μM for 10 or 30 minutes (FIG. 9). In all studies, plasma was immediately placed in microtainer tubes, frozen on dry ice and stored at −80° C. until analysis.
(§3) The following table outlines the LC and MS/MS conditions employed (Table 11).
(§4) The calibration range for MRS2365 plasma and blood concentration standard curves was 5-5000 ng/mL. […]

The nature of series [2]: In vitro stability of MRS2365 in human plasma. Format: in vitro ADME. As for the experimental part: as §1, §2, §3, §4
Series [3] can be described thus: In vitro stability of MRS2365 in mouse whole blood. Format: in vitro ADME. Conditions: male, CD-1, EDTA-treated mouse whole blood. As for the experimental part:
as §1
Blood Stability Determination: MRS2365, enalapril and procaine were solubilized in phosphate-buffered saline, pH 7.4. […] Stability incubations were initiated with the addition of MRS2365 (1 μM final concentration) (FIGS. 5 and 6). Blood sample aliquots were obtained at 0, 1, 2.5, 7.5, 10 and 30 minutes and placed in microtainer tubes. For metabolite scouting analyses, MRS2365 was incubated in heparinized human whole blood at a concentration of 100 μM for 10 or 30 minutes (FIG. 10). In all studies, plasma was immediately prepared by centrifugation at 4° C., placed in microtainer tubes, frozen on dry ice and stored at −80° C. until analysis.
as §3
The calibration range for MRS2365 plasma and blood concentration standard curves was 5-5000 ng/mL. Quality control samples were utilized at concentrations of 32, 160, 800 and 4000 ng/mL.

Series [4] in a line: LC-MS/MS metabolite scouting of MRS2365 in plasma and whole blood. Format: in vitro ADME. Conditions: EDTA-treated mouse and human whole blood. As for the experimental part: as §2, with “For metabolite scouting analyses, MRS2365 was incubated in heparinized human plasma at a concentration of 100 μM for 10 or 30 minutes (FIG. 9). In all studies, plasma was immediately placed in microtainer tubes, frozen on dry ice and stored at −80° C. until analysis.” left out
Plasma and blood samples were also qualitatively analyzed for MRS2365 metabolites utilizing a LC-MS/MS-based “metabolite scouting” protocol. […] Blood and plasma samples were analyzed by both positive- and negative-ion LC/MS-MS for parent compound and metabolites as it was anticipated that the phosphorylated compounds would preferentially generate negative ions while the riboside MRS4322 would preferentially generate positive ions. In positive-ion mode, extracted ion chromatograms monitored masses in the range of 323.7-324.7 and 403.7-404.7 to scout for MRS4322 and MRS2347, respectively. Any ion peaks in these ranges were further analyzed to generate product ion spectra for these ion chromatogram peaks. […]

A short description of series [5]: Plasma binding determination by plasma ultrafiltration, neonatal pig. Format: in vitro ADME. Conditions: female, 37° C., read-out: % Bound Mean (converted).
Method: Plasma ultrafiltrate blank samples were prepared by thawing frozen plasma and then pre-warming plasma in a humidified 5% CO2 chamber at 37 C for 60 minutes. Aliquots of 800 ul were transferred to Centrifree Centrifugal Filters (Ultracel regenerated cellulose (NMWL 30,000 amu) Lot R5JA31736) and centrifuged at 2900 RPM at 37 C for 10 minutes; plasma water filtrates were collected and used in preparation of standards, blanks and QC standards.
Plasma Binding Determination. […] Plasma samples were pre-warmed for 60 minutes in a humidified, 5% CO2 incubator maintained at 37° C. […] Spiked plasma samples were incubated on a rotary mixer in a humidified 5% CO2 chamber at 37° C. for a minimum of 60 minutes. After 60 minutes, three 800 ul aliquots of each sample were added to Centrifree centrifugal filters. The filters were subjected to centrifugation at 2900 rpm for 10 minutes at 37° C. Three 100 ul aliquots of residual plasma were collected along with ultrafiltrate for bioanalysis.
(§6) For each tissue matrix, standard curves were created and LLOQ/ULOQ concentrations determined.
A short description of series [6]: Brain binding determination by brain homogenate ultrafiltration, neonatal pig. Format: in vitro ADME. The note with it: female, pH 7.4, 37° C., read-out: % Bound Mean (converted).
Method: Animals and Tissue Preparation. Plasma and brain samples from female neonatal pigs were obtained from the University of Pennsylvania and stored at −80° C. until use.
Brains were weighed and homogenized with 1:9 phosphate-buffered saline, pH 7.4 using an Omni tissue homogenizer.
Pooled homogenized brains were pre-warmed for 60 minutes in a humidified, 5% CO2 incubator maintained at 37° C. […] Spiked pooled brain homogenates were placed on a Nutator mixer in a humidified, 5% CO2 incubator at 37° C. for 60 minutes. After 60 minutes, three 800 ul aliquots of each sample were added to Centrifree centrifugal filters. The filters were subjected to centrifugation at 2900 rpm for 10 minutes at 37 C. Aliquots of residual brain homogenate and ultrafiltrate were collected for bioanalysis.
as §6
In series [7] the target is T1, human A3 adenosine receptor (Homo sapiens, UniProt P0DMS8).
T1 construct: expressed in transfected cells; whole cells for cAMP
T1 sequence (P0DMS8 1-318): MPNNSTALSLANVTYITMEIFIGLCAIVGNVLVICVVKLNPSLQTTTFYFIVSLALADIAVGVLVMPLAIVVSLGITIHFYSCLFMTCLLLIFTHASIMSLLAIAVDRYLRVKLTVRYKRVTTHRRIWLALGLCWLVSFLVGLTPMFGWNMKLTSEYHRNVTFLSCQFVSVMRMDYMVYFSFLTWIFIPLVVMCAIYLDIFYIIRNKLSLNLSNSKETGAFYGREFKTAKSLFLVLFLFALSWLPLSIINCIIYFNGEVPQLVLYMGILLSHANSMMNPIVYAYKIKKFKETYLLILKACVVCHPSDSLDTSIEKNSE
The series is described as follows: cAMP accumulation at human A3 receptors expressed in CHO cells. Format: cell-based. As for the experimental part:
(§5) Additionally cAMP experiments were conducted at CHO cells recombinantly expressing human A3 or mouse A3 adenosine receptors, respectively.

Series [8] addresses T2, mouse A3 adenosine receptor (Mus musculus, UniProt Q61618).
T2 construct: expressed in transfected cells; whole cells for cAMP
T2 sequence (Q61618 1-319): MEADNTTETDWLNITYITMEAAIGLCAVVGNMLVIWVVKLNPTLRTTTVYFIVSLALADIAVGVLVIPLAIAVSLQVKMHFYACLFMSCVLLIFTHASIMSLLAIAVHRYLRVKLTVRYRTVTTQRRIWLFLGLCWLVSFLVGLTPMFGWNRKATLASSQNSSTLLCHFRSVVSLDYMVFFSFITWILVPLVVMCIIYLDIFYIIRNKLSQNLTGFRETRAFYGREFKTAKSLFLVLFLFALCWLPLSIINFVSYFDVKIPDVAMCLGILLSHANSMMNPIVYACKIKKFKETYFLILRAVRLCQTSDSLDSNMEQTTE
The series is described as follows: cAMP accumulation at mouse A3 receptors expressed in CHO cells. Format: cell-based. The protocol:
as §5
Background: cAMP levels reflect the balance of adenylyl cyclase and phosphodiesterase activity.

As a reminder, the half-life is how long it takes for the measured level to halve. For the compound `CSc1nc(N)c2ncn([C@H]3[C@H](O)[C@H](O)[C@]4(COP(=O)(O)OP(=O)(O)O)C[C@H]34)c2n1` [MRS2365], the “MRS2365 concentrations in heparin-treated plasma” value in series [1] (heparin-treated mouse plasma, 0-90 seconds, even at 0 and 5 seconds) is recorded as “extremely low”; in series [2] (heparin-treated human plasma, 0-90 seconds, even at 0 and 5 seconds), “extremely low”. For the same compound, the half-life at 1 μM in series [1] (male, CD-1, EDTA-prepared mouse plasma, 1 μM, incubation out to 240 minutes) was over 4 h; in series [2] (EDTA-prepared human plasma, 1 μM, incubation out to 240 minutes), over 4 h; in series [3], 0.783 h. In addition, the metabolites detected result in series [4] is listed as “No metabolites were detected”.
As a reminder, the EC50 is the concentration giving half of the maximal effect. For the compound `CSc1nc(N)c2ncn([C@H]3[C@H](O)[C@H](O)[C@]4(CO)C[C@H]34)c2n1` [MRS4322], the fraction unbound at 60 min, 1 uM in series [5] was 0.784; in series [6], 0.253. The EC50 in series [7] (CHO cells stably expressing human A3R, read-out: EC50 ± SEM, Human A3R, cAMP accumulation) came out at 3630 ± 370 nM; in series [8] (CHO cells stably expressing mouse A3R, read-out: EC50 ± SEM, Mouse A3R, cAMP accumulation), 759 ± 170 nM. In addition, the Emax at 100 µM worked out at 70% in series [7] (read-out: efficacy at 100 μM concentration in % relative to maximal effect of NECA, Human A3R, 100 μM, cAMP accumulation, CHO cells) and 72% in series [8] (read-out: efficacy at 100 μM concentration in % relative to maximal effect of NECA, Mouse A3R, 100 μM, cAMP accumulation, CHO cells).
